Measured values published in publication PMC3128934, “Substrate Pathways and Mechanisms of Inhibition in the Sulfur Oxygenase Reductase of Acidianus Ambivalens” (Frontiers in Microbiology, 2011).

Key:
[1] = tested on: sulfur oxygenase reductase (SOR); parameters: method as in Kletzin, [1989]; details: ref Kletzin, [1989], cited from earlier work; for residual activity for the oxidized reaction products: 0.1 mM inhibitor; for oxygenase activity remaining: 1 mM inhibitor
[2] = target: sulfur oxygenase reductase (SOR) H277A mutant (Acidianus ambivalens, UniProt P29082, H277A); assay: biochemical; details: for Ki: Ki-value (half-maximal inhibitory concentration), H277A mutant
Chain of sulfur oxygenase reductase (SOR) H277A mutant (P29082 whole entry H277A): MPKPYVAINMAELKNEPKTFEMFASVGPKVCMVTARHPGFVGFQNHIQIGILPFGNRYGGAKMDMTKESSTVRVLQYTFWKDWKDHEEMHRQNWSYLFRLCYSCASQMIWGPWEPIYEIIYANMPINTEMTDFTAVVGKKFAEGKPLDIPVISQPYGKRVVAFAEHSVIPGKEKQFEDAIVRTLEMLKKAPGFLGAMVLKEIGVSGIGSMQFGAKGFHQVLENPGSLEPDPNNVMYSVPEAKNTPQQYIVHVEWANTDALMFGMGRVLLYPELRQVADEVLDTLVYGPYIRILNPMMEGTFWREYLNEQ
Description: (§1) Specific activities of the wild type and mutant proteins were determined by incubation of 2–5 μg of purified enzyme/ml of Tris–HCl buffer pH 7.2 containing 2% sulfur and 0.1% of Tween 20 as described previously (Kletzin, [1989]; Urich et al., [2004], [2005b]). Samples were taken at appropriate time points (usually after 0, 2, 4, 6, 8, and 10 min) and the concentration of the products was determined colorimetrically. Specific activities were calculated from the linear increase of product concentrations (Kletzin, [1989]). At least two activity measurements were performed for each mutant using independently purified protein preparations (see below, Table 2). Iron quantification was performed with pure protein preparations using the 2,4,6-tripyridyl-1,3,5-triazine method (TPTZ; Fischer and Price, [1964]). Protein concentrations were determined by the Coomassie Blue method (Bradford, [1976]) or using the BCA Protein Assay Kit (Novagen/Merck, Darmstadt, Germany) according to the manufacturer's instructions. Samples of purified proteins were separated by SDS-PAGE (Schägger and von Jagow, [1987]) and visualized with colloidal Coomassie Blue staining (Roti-Blue; Roth, Karlsruhe, Germany).
(§2) Zinc inhibition assays of the wild type and mutant proteins were performed by addition of a freshly prepared zinc chloride solution to the reaction buffer in concentrations ranging from 0.01 to 1 mM (Kletzin, [1989]). After addition of the enzyme, the mixture was incubated for 30 min at room temperature before starting the reaction by heating to 85°C and measurement of the specific activities. A zinc/buffer mixture without protein was used as a negative control.

[3] = target: sulfur oxygenase reductase (SOR) H166A mutant (Acidianus ambivalens, UniProt P29082, H166A); assay: biochemical; details: for Ki: Ki-value (half-maximal inhibitory concentration), H166A mutant
Chain of sulfur oxygenase reductase (SOR) H166A mutant (P29082 whole entry H166A): as the sequence (P29082 whole entry H277A) above, with H166A, A277H counted along it
Description: as §1, §2

[4] = target: sulfur oxygenase reductase (SOR) wild type (Acidianus ambivalens, UniProt P29082); assay: biochemical; details: Ki-value (half-maximal inhibitory concentration), wild type enzyme, 30 min preincubation at room temperature, reaction at 85°C
Chain of sulfur oxygenase reductase (SOR) wild type (P29082 whole entry): as the sequence (P29082 whole entry H277A) above, with A277H counted along it
Description: as §1, §2

Q: For [Hg+2] [Hg^2+], which “residual activity for the oxidized reaction products” value [1] is on record?
A: The value was 37%.

Q: With NC(=O)CI [IAA, iodoacetamide] as the compound, how does the oxygenase activity remaining [1] read?
A: Its oxygenase activity remaining is 27%.

Q: For CCN1C(=O)C=CC1=O [NEM, N-ethylmaleimide], which oxygenase activity remaining [1] is on record?
A: The oxygenase activity remaining was 47%.

Q: With [Zn+2] [zinc chloride] as the compound, how does the “Increase of Ki-value compared to the wild type” value ([2]; H277A mutant vs wild type) read?
A: Its value is “two- to threefold”.

Q: And the Ki ([2]; oxygenase activity)?
A: The Ki was 157 µM.

Q: And the Ki ([2]; reductase activity)?
A: The Ki was 144 µM.

Q: And the “Increase of Ki-value compared to the wild type” value ([3]; H166A mutant vs wild type)?
A: Its value is “two- to threefold”.

Q: And the Ki ([3]; oxygenase activity)?
A: The Ki was 121 µM.

Q: And the Ki ([3]; reductase activity)?
A: Its Ki is 150 µM.

Q: And the Ki ([4]; oxygenase activity)?
A: Its Ki is 45 µM.

Q: What about the Ki ([4]; reductase activity) of the same compound?
A: The Ki was 39 µM.

Q: What about the “residual activity for the oxidized reaction products” value [1] of the same compound?
A: The value was 74%.
